What was measured:
Format in all cases: in vivo
[1] = tested on: diamondback moth (Plutella xylostella); assay: Control test against diamondback moth (Plutella xylostella); conditions: 500 ppm active ingredient, sprayed on cabbage seedlings 20 mL/seedling, 2nd instar larvae, after 5 days, 25° C.
Procedure: Next, a Test Example is used to show efficacy of the Present compound against pests. In the following Test Example, the test was carried out at 25° C. Test Example 1 Control test against diamondback moth (Plutella xylostella) The Present compound was formulated according to the process described in the Formulation Example 6 to obtain a formulation, and water containing a spreader (0.03% by volume) was added thereto to prepare a diluted solution containing 500 ppm of the active ingredient. Cabbage (Brassicae oleracea) seedlings (on the developmental stage of the second to third true leaf) were planted in a container, and said diluted solution was sprayed into the leaves of the seedlings at a ratio of 20 mL/seedling. Thereafter, the stems and leaves of the seedlings were cut out, and the leaves were placed into a container lined with a filter paper. Approximately five the 2nd instar larvae of diamondback moth (Plutella xylostella) were released into the container. After 5 days, the number of the surviving insects was examined, and the controlling value was calculated by the following equation. […] Controlling value (%)={1−(Cb×Tai)/(Cai×Tb)}×100 wherein the symbols in the equation represent the following meanings. […]

[2] = tested on: Septoria leaf blotch (Septoria tritici) on wheat; assay: Preventive efficacy by foliage application against Septoria leaf blotch on wheat
[3] = tested on: net blotch (Pyrenophora teres) on barley; assay: Preventive efficacy by foliage application against net blotch on barley

SMILES	Controlling value (control effects) [1]	preventive efficacy against Septoria leaf blotch (Septoria tritici) [2]	preventive efficacy against net blotch (Pyrenophora teres) [3]
Cc1cccc(-n2nnn(C)c2=O)c1CN1C(=O)CCN1c1ccc(Cl)cc1 [Present compound]	100%	–	–
Cc1cccc(-n2nnn(C)c2=O)c1COC1=NN(c2ccc(Cl)cc2)CC1 [compound represented by formula (4)]	–	showed preventive efficacy	showed preventive efficacy

From patent publication US11064698B2, “Tetrazolinone compound and use thereof” (SUMITOMO CHEMICAL COMPANY, LIMITED, priority 2017, dated 2021)
